Values quoted from earlier work in US20090191293A1, “Composition for enhancing immunity and reducing inflammation related to infections” (IOMEDI DEVELOPMENT INTERNATIONAL, SRL, priority 2007, published 2009).

Columns and labels:
[1] = system: NF-κB dependent signaling pathway; conditions: lipopolysaccharide-induced inflammation
[2] = system: arachidonic acid inflammatory reactions
[3] = system: LPS-Stimulated Monocytes/Macrophages
NF-κB = conditions: treatment of mice
[4] = system: intercellular adhesion molecule-1; conditions: activated by TNF-α
[5] = system: nuclear factor kappa B (NF-κB); conditions: HL-60-derived neutrophilic cells
[6] = daily supplementation, amounts greater than 100 mg

Structure (SMILES): OC[C@H]1O[C@@H](Oc2cc3c(O)cc(O)cc3[o+]c2-c2ccc(O)c(O)c2)[C@H](O)[C@@H](O)[C@@H]1O [Example C3G, cyanidin-3-glucoside]
- NF-κB dependent signaling pathway [1]: inhibit the NF-κB dependent signaling pathway

Structure (SMILES): Oc1cc(O)c2c(c1)O[C@H](c1ccc(O)c(O)c1)[C@H](O)[C@H]2c1c(O)cc(O)c2c1O[C@H](c1ccc(O)c(O)c1)[C@H](O)C2 [Procyanidin B(2)]
- arachidonic acid inflammatory reactions [2]: strongly inhibit arachidonic acid inflammatory reactions

Structure (SMILES): CC1=C(/C=C/C(C)=C/C=C/C(C)=C/C(=O)O)C(C)(C)CCC1 [all trans-retinoic acid (atRA), all trans-retinoic acid]
- production of IL-10 [3]: enhancing the production of the immune modulating cytokine, IL-10
- production of pro-inflammatory cytokines (IL-12 and TNF-α) [3]: lower the production of pro-inflammatory cytokines

Structure (SMILES): C=CCS[S+]([O-])CC=C (stereo not drawn) [allicin]
- NF-κB binding to the nucleus (NF-κB): significantly reduced NF-κB binding to the nucleus
- TNF-α mediated T cell adhesion to extracellular matrix components and endothelial cells (T cell): inhibition of TNF-α mediated T cell adhesion

Structure (SMILES): C=C1CC[C@@H]2[C@](C)(CO)[C@H](O)CC[C@@]2(C)[C@@H]1C/C=C1/C(=O)OC[C@H]1O [andrographolide]
- expression of intercellular adhesion molecule-1 [4]: inhibit expression of intercellular adhesion molecule-1
- binding of NF-κB to the DNA [5]: specifically affects the binding of nuclear factor kappa B (NF-κB) to the DNA

Structure (SMILES): O=C1O[C@H]([C@@H](O)CO)C(O)=C1O [ascorbic acid, L-ascorbic acid]
- incidence, severity and integrated morbidity of the common cold [6]: lowers the incidence, severity and integrated morbidity of the common cold
